In assay [1] the test system is Human ovarian cancer cell strain OVCAR-8. The assay is described as follows: MTT assay, inhibition of tumor cell growth in vitro, 72 h. It counts as cell-based. Conditions: Homo sapiens, OVCAR-8, MTT, read-out: Antitumor proliferative activities of tumor cell (IC50, μM) OVCAR-8. In outline: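 OVCAR8 cells in RPMI 1640 plus FBS were seeded at 4000 cells/well and exposed for 72 h at 37 °C to compound at 50, 10, 2, 0.4 and 0.08 μM final, with 1% DMSO as blank. Inhibition was calculated from OD relative to control, and IC50 was derived by the Bliss method.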

The subject of assay [2] is human colon cancer cell strain HCT-116. The description is as above. As to conditions: Homo sapiens, HCT-116, MTT, read-out: Antitumor proliferative activities of tumor cell (IC50, μM) HCT-116 (converted). The assay is classed as cell-based. The method in brief: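 Cells in RPMI 1640 with FBS, 4000 cells/well, exposed 72 h at 37 °C, 5% CO2 to final 50, 10, 2, 0.4 and 0.08 μM; 1% DMSO blank. MTT OD gives % inhibition versus control; IC50 derived by Bliss method.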

In assay [3] the target is T1, Akt1 (Homo sapiens, UniProt P31749).
T1 construct: purchased 32-021
The assay is described as follows: AKT1/PKBα KinEASE FP Fluorescein Green Assay (fluorescence polarization kinase kit). It counts as biochemical. As to conditions: 1 h reaction, read-out: Inhibitory activities against Akt1 (IC50). The method in brief: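 FP competition kinase assay: compounds (50 μM stock) with STK Substrate 3 and ATP, 1 h reaction at room temperature; stopped with stop/antibody mix, 4 h at room temperature, then polarization read. Inhibition derived from polarization values; IC50 calculated; triplicate wells.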

T1 sequence (P31749 whole entry): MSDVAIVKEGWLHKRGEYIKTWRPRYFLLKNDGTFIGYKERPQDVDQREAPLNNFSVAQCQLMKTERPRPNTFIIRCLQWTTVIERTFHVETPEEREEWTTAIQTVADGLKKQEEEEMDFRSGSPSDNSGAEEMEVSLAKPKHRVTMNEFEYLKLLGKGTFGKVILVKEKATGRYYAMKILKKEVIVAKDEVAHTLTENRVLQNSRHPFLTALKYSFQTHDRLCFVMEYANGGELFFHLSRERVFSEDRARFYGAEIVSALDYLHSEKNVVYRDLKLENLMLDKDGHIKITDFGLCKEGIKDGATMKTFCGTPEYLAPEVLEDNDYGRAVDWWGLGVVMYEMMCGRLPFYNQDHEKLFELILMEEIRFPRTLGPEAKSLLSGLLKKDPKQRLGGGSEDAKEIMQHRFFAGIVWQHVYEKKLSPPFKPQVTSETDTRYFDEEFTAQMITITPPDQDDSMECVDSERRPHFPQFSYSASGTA

As for `Cn1ncc(Cl)c1-c1cc(C(=O)N[C@@H]2CNC(CCN3CCOCC3)C[C@H]2c2ccc(Cl)c(Cl)c2)oc1Cl` (stereo partly drawn) [Compound 109, 5-chloro-4-(4-chloro-1-methyl-1H-pyrazol-5-yl)-N-((3S,4S)-4-(3,4-dichlorophenyl)-6-(2-(morpholin-1-yl)ethyl)piperidin-3-yl)furan-2-formamide], the results for the IC50 in assay [1], in assay [2] and in assay [3] were 1.3 µM, 0.78 µM and 9 nM, respectively.

In the case of `Cn1ncc(Cl)c1-c1cc(C(=O)N[C@@H]2CNC(CCN3CCCC3)C[C@H]2c2ccc(Cl)c(Cl)c2)oc1Cl` (stereo partly drawn) [Compound 110, 5-chloro-4-(4-chloro-1-methyl-1H-pyrazol-5-yl)-N-((3S,4S)-4-(3,4-dichlorophenyl)-6-(2-(pyrrolidin-1-yl)ethyl)piperidin-3-yl)furan-2-formamide], the IC50 was 1.21 µM in assay [1], 0.89 µM in assay [2] and 11 nM in assay [3].

For the molecule `Cn1ncc(Cl)c1-c1cc(C(=O)N[C@@H]2CNC(CCCO)C[C@H]2c2ccc(Cl)c(Cl)c2)oc1Cl` (stereo partly drawn) [Compound 111, 5-chloro-4-(4-chloro-1-methyl-1H-pyrazol-5-yl)-N-((3S,4S)-4-(3,4-dichlorophenyl)-6-(3-hydroxypropyl)piperidin-3-yl)furan-2-formamide], the IC50 is 0.07 µM in assay [1], 0.49 µM in assay [2] and 4 nM in assay [3].

`Cn1ncc(Cl)c1-c1cc(C(=O)N[C@@H]2CNC(CC(O)CO)C[C@H]2c2ccc(Cl)c(Cl)c2)oc1Cl` (stereo partly drawn) [Compound 112, 5-chloro-4-(4-chloro-1-methyl-1H-pyrazol-5-yl)-N-((3S,4S)-4-(3,4-dichlorophenyl)-6-(2,3-dihydroxypropyl)piperidin-3-yl)furan-2-formamide]: the figures for the IC50 in assay [1], in assay [2] and in assay [3] were 0.33 µM, 0.84 µM and 2 nM, respectively.

As for `Cn1ncc(Cl)c1-c1cc(C(=O)N[C@@H]2CNC(CCO)C[C@H]2c2ccc(Cl)c(Cl)c2)oc1Cl` (stereo partly drawn) [Compound 113, 5-chloro-4-(4-chloro-1-methyl-1H-pyrazol-5-yl)-N-((3S,4S)-4-(3,4-dichlorophenyl)-6-(2-hydroxyethyl)piperidin-3-yl)furan-2-formamide], the half-maximal inhibitory concentration (IC50) is 0.14 µM in assay [1], 1.72 µM in assay [2] and 3 nM in assay [3].

On to `Cn1ncc(Cl)c1-c1cc(C(=O)N[C@@H]2CNC(CCN3CCC(O)CC3)C[C@H]2c2ccc(Cl)c(Cl)c2)oc1Cl` (stereo partly drawn) [Compound 114, 5-chloro-4-(4-chloro-1-methyl-1H-pyrazol-5-yl)-N-((3S,4S)-4-(3,4-dichlorophenyl)-6-(2-(4-hydroxylpiperidin-1-yl)ethyl)piperidin-3-yl)furan-2-formamide], for which the IC50 in assay [1] is 1.56 µM; in assay [2], 1.1 µM; in assay [3] it was 14 nM.

In the case of `Cn1ncc(Cl)c1-c1cc(C(=O)N[C@@H]2CNC(CCN3CCCC(O)C3)C[C@H]2c2ccc(Cl)c(Cl)c2)oc1Cl` (stereo partly drawn) [Compound 115, 5-chloro-4-(4-chloro-1-methyl-1H-pyrazol-5-yl)-N-((3S,4S)-4-(3,4-dichlorophenyl)-6-(2-(3-hydroxylpiperidin-1-yl)ethyl)piperidin-3-yl)furan-2-formamide], the values for the IC50 in assay [1], in assay [2] and in assay [3] were 0.78 µM, 0.56 µM and 0.8 nM, respectively.

As to `Cn1ncc(Cl)c1-c1cc(C(=O)N[C@@H]2CNC(CC(=O)O)C[C@H]2c2ccc(Cl)c(Cl)c2)oc1Cl` (stereo partly drawn) [Compound 116, 2-((4S,5S)-5-(5-chloro-4-(4-chloro-1-methyl-1H-pyrazol-5-yl)furan-2-formamide)-4-(3,4-dichlorophenyl)piperidin-2-yl)acetic acid], the IC50 was 3.68 µM in assay [1], 5.01 µM in assay [2] and 1 nM in assay [3].

On to `Cn1ncc(Cl)c1-c1cc(C(=O)N[C@@H]2CNC(CC(N)=O)C[C@H]2c2ccc(Cl)c(Cl)c2)oc1Cl` (stereo partly drawn) [Compound 117, N-((3S,4S)-6-(2-amido-2-oxoethyl)-4-(3,4-dichlorophenyl)piperidin-3-yl)-5-chloro-4-(4-chloro-1-methyl-1H-pyrazol-5-yl)furan-2-formamide], for which the IC50 in assay [1] was 0.92 µM; in assay [2], 4.28 µM; in assay [3], 3 nM.

Regarding `CNC(=O)CC1C[C@@H](c2ccc(Cl)c(Cl)c2)[C@H](NC(=O)c2cc(-c3c(Cl)cnn3C)c(Cl)o2)CN1` (stereo partly drawn) [Compound 118, 5-chloro-4-(4-chloro-1-methyl-1H-pyrazol-5-yl)-N-((3S,4S)-4-(3,4-dichlorophenyl)-6-(2-(methylamido)-2-oxoethyl)piperidin-3-yl)furan-2-formamide], the IC50 is 4.02 µM in assay [1], 3.68 µM in assay [2] and 3 nM in assay [3].

As for `Cn1ncc(Cl)c1-c1cc(C(=O)N[C@@H]2CNC(CC(=O)NC3CC3)C[C@H]2c2ccc(Cl)c(Cl)c2)oc1Cl` (stereo partly drawn) [Compound 119, 5-chloro-4-(4-chloro-1-methyl-1H-pyrazol-5-yl)-N-((3S,4S)-6-(2-(cyclopropylamido)-2-oxoethyl)-4-(3,4-dichlorophenyl)piperidin-3-yl)furan-2-formamide], the IC50 in assay [1] was 0.65 µM; in assay [2], 1.47 µM; in assay [3] it was 4 nM.

Consider `Cn1ncc(Cl)c1-c1cc(C(=O)N[C@@H]2CNC(CC(=O)NC3CCC3)C[C@H]2c2ccc(Cl)c(Cl)c2)oc1Cl` (stereo partly drawn) [Compound 120, 5-chloro-4-(4-chloro-1-methyl-1H-pyrazol-5-yl)-N-((3S,4S)-6-(2-(cyclobutylamido)-2-oxoethyl)-4-(3,4-dichlorophenyl)piperidin-3-yl)furan-2-formamide], for which the IC50 in assay [1] is 0.45 µM; in assay [2] it was 0.44 µM; in assay [3], 3 nM.

Take `Cn1ncc(Cl)c1-c1cc(C(=O)N[C@@H]2CNC(CC(=O)NCC(O)CO)C[C@H]2c2ccc(Cl)c(Cl)c2)oc1Cl` (stereo partly drawn) [Compound 121, 5-chloro-4-(4-chloro-1-methyl-1H-pyrazol-5-yl)-N-((3S,4S)-4-(3,4-dichlorophenyl)-6-(2-((2,3-dihydroxypropyl)amido)-2-oxoethyl)piperidin-3-yl)furan-2-formamide]: the IC50 in assay [1] was 0.74 µM; in assay [2] it was 0.36 µM; in assay [3], 5 nM.

Consider `Cn1ncc(Cl)c1-c1cc(C(=O)N[C@@H]2CNC(CCn3cncn3)C[C@H]2c2ccc(Cl)c(Cl)c2)oc1Cl` (stereo partly drawn) [Compound 122, N-((3S,4S)-6-(2-(1H-1,2,4-triazol-1-yl)ethyl)-4-(3,4-dichlorophenyl)piperidin-3-yl)-5-chloro-4-(4-chloro-1-methyl-1H-pyrazol-5-yl)furan-2-formamide], for which the IC50 in assay [1] is 0.43 µM; in assay [2], 1.02 µM; in assay [3], 2 nM.

Regarding `Cn1ncc(Cl)c1-c1cc(C(=O)N[C@@H]2CNC(CCNCC(O)CO)C[C@H]2c2ccc(Cl)c(Cl)c2)oc1Cl` (stereo partly drawn) [Compound 123, 5-chloro-4-(4-chloro-1-methyl-1H-pyrazol-5-yl)-N-((3S,4S)-4-(3,4-dichlorophenyl)-6-(2-((2,3-dihydroxypropyl)amido)ethyl)piperidin-3-yl)furan-2-formamide], the IC50 was 0.09 µM in assay [1], 0.07 µM in assay [2] and 0.1 nM in assay [3].

Take `COCCC1C[C@@H](c2ccc(Cl)c(Cl)c2)[C@H](NC(=O)c2cc(-c3c(Cl)cnn3C)c(Cl)o2)CN1` (stereo partly drawn) [Compound 124, 5-chloro-4-(4-chloro-1-methyl-1H-pyrazol-5-yl)-N-((3S,4S)-4-(3,4-dichlorophenyl)-6-(2-methoxyethyl)piperidin-3-yl)furan-2-formamide]: the figures for the IC50 in assay [1], in assay [2] and in assay [3] were 0.56 µM, 0.34 µM and 1 nM, respectively.

The record behind these values is patent US10233180B2, “Substituted nitrogen-containing heterocyclic derivatives, pharmaceutical compositions comprising the same and applications of antitumor thereof” (ZHEJIANG UNIVERSITY, priority 2014, dated 2019).
